Read-outs that look alike come from different tables or passages of the source.
Columns and labels:
[1] = target: SARS-CoV-2 3CL-protease (Severe acute respiratory syndrome coronavirus 2 (2019-nCoV) (SARS-CoV-2), UniProt P0DTD1); experiment: SARS-CoV-2 3C-Like (3CL) Protease Fluorescence Assay (FRET); assay type: biochemical
[2] = system: 229E human corona virus (hCoV); experiment: 229E Live Virus Assay (MRC-5 cells, CPE, ATPlite readout); assay type: cell-based, hCoV-229E; details: read-out: 229E EC50

## CC(C)(C)C(NC(=O)NCc1ccccc1)C(=O)N1CCC[C@H]1C(=O)N1C[C@]2(C[C@H]1C#N)C(=O)Nc1ccccc12 (some centres unmarked) [Example 60]
[1]
  IC50: > 1000 nM
[2]; Human coronavirus 229E, MRC5, 144 h
  EC50: > 1 µM

## CC(C)C[C@@H](C(=O)N1C[C@]2(C[C@H]1C#N)C(=O)Nc1ccccc12)N(C)C(=O)[C@@H](NC(=O)C(F)(F)F)c1ccccc1 [Example 116]
[1]
  IC50: < 100 nM

## CC(C)(C)C[C@H](NC(=O)[C@H](CC1CC1)NS(=O)(=O)C1CC1)C(=O)N1C[C@]2(C[C@H]1C#N)C(=O)Nc1ccccc12 [Example 37]
[1]
  IC50: < 100 nM

## CC(C)(C)C[C@H](NC(=O)[C@H](CC1CC1)NC(=O)C(F)(F)c1ccccc1)C(=O)N1C[C@]2(C[C@H]1C#N)C(=O)Nc1ccccc12 [Example 79]
[1]
  IC50: < 100 nM

## CC(C)(C)C[C@H](NC(=O)[C@H](CC1CC1)NC(=O)c1ccc(F)cc1)C(=O)N1C[C@]2(C[C@H]1C#N)C(=O)Nc1ccccc12 [Example 97]
[1]
  IC50: < 100 nM

## CN(C(=O)[C@H](CC1CC1)NC(=O)c1ccc(OC2CC2)c(OC2CC2)c1)[C@@H](CC(C)(C)C)C(=O)N1C[C@]2(C[C@H]1C#N)C(=O)Nc1ccccc12 [Example 131]
[1]
  IC50: < 100 nM

## CC(C)(C)C[C@H](NC(=O)[C@H](CC1CC1)NC(=O)N1CCCCC1)C(=O)N1C[C@]2(C[C@H]1C#N)C(=O)Nc1ccccc12 [Example 101]
[1]
  IC50: < 100 nM

## CC(C)C[C@@H](C(=O)N1C[C@]2(C[C@H]1C#N)C(=O)Nc1ccccc12)N(C)C(=O)[C@H](NC(=O)C(F)(F)F)c1ccccc1 [Example 117]
[1]
  IC50: < 100 nM

## CC(C)(C)C[C@H](NC(=O)[C@H](CC1CC1)N1CCOC1=O)C(=O)N1C[C@]2(C[C@H]1C#N)C(=O)Nc1ccccc12 [Example 119]
[1]
  IC50: < 100 nM

## CC(C)(C)C(NC(=O)C(F)(F)F)C(=O)N1CCC[C@H]1C(=O)N1C[C@]2(C[C@H]1C#N)C(=O)Nc1ccccc12 (some centres unmarked) [Example 102]
[1]
  IC50: > 1000 nM

## CC(C)C(=O)N[C@@H](C)C(=O)N(C)[C@@H](CC(C)(C)C)C(=O)N1C[C@]2(C[C@H]1C#N)C(=O)Nc1ccccc12 [Example 130]
[1]
  IC50: < 100 nM

## CC(=O)N[C@@H](CC1CC1)C(=O)N[C@@H](CC(C)(C)C)C(=O)N1C[C@]2(C[C@H]1C#N)C(=O)Nc1ccccc12 [Example 95]
[1]
  IC50: < 100 nM

## CC(C)(C)C[C@H](NC(=O)[C@H](CC1CC1)NC(=O)C(F)(F)F)C(=O)N1C[C@]2(C[C@H]1C#N)C(=O)Nc1ccccc12 [Example 96]
[1]
  IC50: < 100 nM

## Cc1cc(C(=O)N[C@@H](CC2CC2)C(=O)N[C@@H](CC(C)(C)C)C(=O)N2C[C@]3(C[C@H]2C#N)C(=O)Nc2ccccc23)no1 [Example 99]
[1]
  IC50: < 100 nM

## CN(C(=O)[C@H](CC1CC1)NC(=O)c1cc(F)c2nn(C3CC3)cc2c1)[C@@H](CC(C)(C)C)C(=O)N1C[C@]2(C[C@H]1C#N)C(=O)Nc1ccccc12 [Example 127]
[1]
  IC50: < 100 nM

## CC(C)(C)C[C@H](NC(=O)[C@H](CC1CC1)NC(=O)c1cnccn1)C(=O)N1C[C@]2(C[C@H]1C#N)C(=O)Nc1ccccc12 [Example 98]
[1]
  IC50: < 100 nM

## CC(C)[C@H](NS(=O)(=O)c1ccc(F)cc1)C(=O)N(C)[C@@H](CC(C)(C)C)C(=O)N1C[C@]2(C[C@H]1C#N)C(=O)Nc1ccccc12 [Example 111]
[2]; MRC-5 cells, hCoV-229E MOI 0.05, 6 days at 34° C., ATPlite, duplicate, ranges defined in μM
  EC50: 0.1 to 1 µM

## CN(C)[C@@H](CC1CC1)C(=O)N(C)[C@@H](CC(C)(C)C)C(=O)N1C[C@]2(C[C@H]1C#N)C(=O)Nc1ccccc12 [Example 132]
[1]
  IC50: 100 to 1000 nM

## CC(C)(C)C[C@H](NC(=O)[C@H](Cc1ccc(F)cc1)NC(=O)c1cnccn1)C(=O)N1C[C@]2(C[C@H]1C#N)C(=O)Nc1ccccc12 [Example 104]
[1]
  IC50: < 100 nM

## CC(=O)N[C@@H](Cc1ccc(F)cc1)C(=O)N(C)[C@@H](CC(C)(C)C)C(=O)N1C[C@]2(C[C@H]1C#N)C(=O)Nc1ccccc12 [Example 103]
[1]
  IC50: < 100 nM

## CN(C)[C@@H](CC1CC1)C(=O)N[C@@H](CC(C)(C)C)C(=O)N1C[C@]2(C[C@H]1C#N)C(=O)Nc1ccccc12 [Example 106]
[1]
  IC50: > 1000 nM

## CC(C)(C)C[C@H](NC(=O)[C@H](CC1CC1)n1cc(C2CC2)nn1)C(=O)N1C[C@]2(C[C@H]1C#N)C(=O)Nc1ccccc12 [Example 53]
[1]
  IC50: < 100 nM

## CN(C(=O)[C@H](CC1CC1)NC(=O)c1cc2c(F)cc(F)c(F)c2[nH]1)[C@@H](CC(C)(C)C)C(=O)N1C[C@]2(C[C@H]1C#N)C(=O)Nc1ccccc12 [Example 126]
[1]
  IC50: < 100 nM

## Cc1ncc(C(=O)N[C@@H](CC2CC2)C(=O)N[C@@H](CC(C)(C)C)C(=O)N2C[C@]3(C[C@H]2C#N)C(=O)Nc2ccccc23)s1 [Example 100]
[1]
  IC50: < 100 nM

## Cc1cc(C(=O)N[C@@H](Cc2ccc(F)cc2)C(=O)N[C@@H](CC(C)(C)C)C(=O)N2C[C@]3(C[C@H]2C#N)C(=O)Nc2ccccc23)no1 [Example 105]
[1]
  IC50: < 100 nM
